Data reported in ChEMBL document CHEMBL1154382, “Preliminary SAR analysis of novel antiproliferative N(6),5'-bis-ureidoadenosine derivatives” (2009).

Experiments:
Type in all cases: functional
Settings in all cases: values are per cent of control
CCRF-CEM = test: Antiproliferative activity against human CCRF-CEM cells at 10 uM assessed as cell growth inhibition relative to control
HL-60(TB) = test: Antiproliferative activity against human HL-60(TB) cells at 10 uM assessed as cell growth inhibition relative to control
K562 = test: Antiproliferative activity against human K562 cells at 10 uM assessed as cell growth inhibition relative to control
MOLT-4 = test: Antiproliferative activity against human MOLT4 cells at 10 uM assessed as cell growth inhibition relative to control
[1] = Antiproliferative activity against human […] cells at 10 uM assessed as cell growth inhibition relative to control
A549 = test: Antiproliferative activity against human A549 cells at 10 uM assessed as cell growth inhibition relative to control
EKVX = test: Antiproliferative activity against human EKVX cells at 10 uM assessed as cell growth inhibition relative to control
PC-3 = test: Antiproliferative activity against human PC3 cells at 10 uM assessed as cell growth inhibition relative to control
HOP-62 = test: Antiproliferative activity against human HOP62 cells at 10 uM assessed as cell growth inhibition relative to control
HOP-92 = test: Antiproliferative activity against human HOP92 cells at 10 uM assessed as cell growth inhibition relative to control
NCI-H226 = test: Antiproliferative activity against human NCI-H226 cells at 10 uM assessed as cell growth inhibition relative to control
NCI-H23 = test: Antiproliferative activity against human NCI-H23 cells at 10 uM assessed as cell growth inhibition relative to control
NCI-H322M = test: Antiproliferative activity against human NCI-H322M cells at 10 uM assessed as cell growth inhibition relative to control
NCI-H460 = test: Antiproliferative activity against human NCI-H460 cells at 10 uM assessed as cell growth inhibition relative to control
NCI-H522 = test: Antiproliferative activity against human NCI-H522 cells at 10 uM assessed as cell growth inhibition relative to control
COLO 205 = test: Antiproliferative activity against human COLO205 cells at 10 uM assessed as cell growth inhibition relative to control
HCC 2998 = test: Antiproliferative activity against human HCC2998 cells at 10 uM assessed as cell growth inhibition relative to control
HCT-116 = test: Antiproliferative activity against human HCT116 cells at 10 uM assessed as cell growth inhibition relative to control
HCT-15 = test: Antiproliferative activity against human HCT15 cells at 10 uM assessed as cell growth inhibition relative to control
HT-29 = test: Antiproliferative activity against human HT-29 cells at 10 uM assessed as cell growth inhibition relative to control
KM12 = test: Antiproliferative activity against human KM12 cells at 10 uM assessed as cell growth inhibition relative to control
SW-620 = test: Antiproliferative activity against human SW620 cells at 10 uM assessed as cell growth inhibition relative to control
LOX IMVI = test: Antiproliferative activity against human LOXIMVI cells at 10 uM assessed as cell growth inhibition relative to control
Malme-3M = test: Antiproliferative activity against human MALME-3M cells at 10 uM assessed as cell growth inhibition relative to control
M14 = test: Antiproliferative activity against human M14 cells at 10 uM assessed as cell growth inhibition relative to control
SK-MEL-2 = test: Antiproliferative activity against human SK-MEL-2 cells at 10 uM assessed as cell growth inhibition relative to control
SK-MEL-28 = test: Antiproliferative activity against human SK-MEL-28 cells at 10 uM assessed as cell growth inhibition relative to control
SK-MEL-5 = test: Antiproliferative activity against human SK-MEL-5 cells at 10 uM assessed as cell growth inhibition relative to control
UACC-257 = test: Antiproliferative activity against human UACC257 cells at 10 uM assessed as cell growth inhibition relative to control
UACC-62 = test: Antiproliferative activity against human UACC62 cells at 10 uM assessed as cell growth inhibition relative to control
SF-268 = test: Antiproliferative activity against human SF268 cells at 10 uM assessed as cell growth inhibition relative to control
SF-295 = test: Antiproliferative activity against human SF295 cells at 10 uM assessed as cell growth inhibition relative to control
SF-539 = test: Antiproliferative activity against human SF539 cells at 10 uM assessed as cell growth inhibition relative to control
SNB-19 = test: Antiproliferative activity against human SNB19 cells at 10 uM assessed as cell growth inhibition relative to control
SNB-75 = test: Antiproliferative activity against human SNB75 cells at 10 uM assessed as cell growth inhibition relative to control
U-251 = test: Antiproliferative activity against human U251 cells at 10 uM assessed as cell growth inhibition relative to control
IGROV-1 = test: Antiproliferative activity against human IGROV1 cells at 10 uM assessed as cell growth inhibition relative to control
OVCAR-3 = test: Antiproliferative activity against human OVCAR-3 cells at 10 uM assessed as cell growth inhibition relative to control
OVCAR-4 = test: Antiproliferative activity against human OVCAR4 cells at 10 uM assessed as cell growth inhibition relative to control
OVCAR-5 = test: Antiproliferative activity against human OVCAR5 cells at 10 uM assessed as cell growth inhibition relative to control
OVCAR-8 = test: Antiproliferative activity against human OVCAR8 cells at 10 uM assessed as cell growth inhibition relative to control
SK-OV-3 = test: Antiproliferative activity against human SKOV3 cells at 10 uM assessed as cell growth inhibition relative to control
786-0 = test: Antiproliferative activity against human 786-0 cells at 10 uM assessed as cell growth inhibition relative to control
A498 = test: Antiproliferative activity against human A498 cells at 10 uM assessed as cell growth inhibition relative to control
ACHN = test: Antiproliferative activity against human ACHN cells at 10 uM assessed as cell growth inhibition relative to control
CAKI-1 = test: Antiproliferative activity against human Caki1 cells at 10 uM assessed as cell growth inhibition relative to control
RXF 393 = test: Antiproliferative activity against human RXF393 cells at 10 uM assessed as cell growth inhibition relative to control
SN12C = test: Antiproliferative activity against human SN12C cells at 10 uM assessed as cell growth inhibition relative to control
TK-10 = test: Antiproliferative activity against human TK10 cells at 10 uM assessed as cell growth inhibition relative to control
UO-31 = test: Antiproliferative activity against human UO31 cells at 10 uM assessed as cell growth inhibition relative to control
BT-549 = test: Antiproliferative activity against human BT549 cells at 10 uM assessed as cell growth inhibition relative to control
[2] = Antiproliferative activity against human Hs 578T cells at 10 uM assessed as cell growth inhibition relative to control
MCF7 = test: Antiproliferative activity against human MCF7 cells at 10 uM assessed as cell growth inhibition relative to control
MDA-MB-231 = test: Antiproliferative activity against human MDA-MB-231 cells at 10 uM assessed as cell growth inhibition relative to control
MDA-MB-468 = test: Antiproliferative activity against human MDA-MB-468 cells at 10 uM assessed as cell growth inhibition relative to control
T47D = test: Antiproliferative activity against human T47D cells at 10 uM assessed as cell growth inhibition relative to control
DU-145 = test: Antiproliferative activity against human DU145 cells at 10 uM assessed as cell growth inhibition relative to control

With `CCOC(=O)C[C@H]1[C@@H](O[Si](C)(C)C(C)(C)C)[C@H](n2cnc3c(NC(=O)Nc4ccccc4)ncnc32)O[C@@H]1CN=[N+]=[N-]` the growth, % of control at 10 µM (CCRF-CEM) was 63%, the growth, % of control at 10 µM (HL-60(TB)) was 51% and the growth, % of control at 10 µM (K562) was 72%. It also gave a growth, % of control at 10 µM (MOLT-4) of 79%, a growth, % of control at 10 µM [1] of 75% and a growth, % of control at 10 µM (A549) of 103%. The growth, % of control at 10 µM (EKVX) was 89%, the growth, % of control at 10 µM (PC-3) was 64% and the growth, % of control at 10 µM (HOP-62) was 98%. For the same compound, the growth, % of control at 10 µM (HOP-92) was 100%, the growth, % of control at 10 µM (NCI-H226) was 62% and the growth, % of control at 10 µM (NCI-H23) was 97%. The growth, % of control at 10 µM (NCI-H322M) was 99%, the growth, % of control at 10 µM (NCI-H460) was 104% and the growth, % of control at 10 µM (NCI-H522) was 90%. It also gave a growth, % of control at 10 µM (COLO 205) of 114%, a growth, % of control at 10 µM (HCC 2998) of 121% and a growth, % of control at 10 µM (HCT-116) of 82%. It also gave a growth, % of control at 10 µM (HCT-15) of 84%, a growth, % of control at 10 µM (HT-29) of 104% and a growth, % of control at 10 µM (KM12) of 101%. For the same compound, the growth, % of control at 10 µM (SW-620) was 101%, the growth, % of control at 10 µM (LOX IMVI) was 96% and the growth, % of control at 10 µM (Malme-3M) was 97%. For the same compound, the growth, % of control at 10 µM (M14) was 101%, the growth, % of control at 10 µM (SK-MEL-2) was 91% and the growth, % of control at 10 µM (SK-MEL-28) was 116%. For the same compound, the growth, % of control at 10 µM (SK-MEL-5) was 104%, the growth, % of control at 10 µM (UACC-257) was 88% and the growth, % of control at 10 µM (UACC-62) was 83%. For the same compound, the growth, % of control at 10 µM (SF-268) was 95%, the growth, % of control at 10 µM (SF-295) was 94% and the growth, % of control at 10 µM (SF-539) was 89%. It also gave a growth, % of control at 10 µM (SNB-19) of 92%, a growth, % of control at 10 µM (SNB-75) of 73% and a growth, % of control at 10 µM (U-251) of 95%. It also gave a growth, % of control at 10 µM (IGROV-1) of 93%, a growth, % of control at 10 µM (OVCAR-3) of 111% and a growth, % of control at 10 µM (OVCAR-4) of 66%. The growth, % of control at 10 µM (OVCAR-5) was 107%, the growth, % of control at 10 µM (OVCAR-8) was 98% and the growth, % of control at 10 µM (SK-OV-3) was 101%. The growth, % of control at 10 µM (786-0) was 89%, the growth, % of control at 10 µM (A498) was 121% and the growth, % of control at 10 µM (ACHN) was 92%. For the same compound, the growth, % of control at 10 µM (CAKI-1) was 87%, the growth, % of control at 10 µM (RXF 393) was 111% and the growth, % of control at 10 µM (SN12C) was 81%. For the same compound, the growth, % of control at 10 µM (TK-10) was 103%, the growth, % of control at 10 µM (UO-31) was 83% and the growth, % of control at 10 µM (BT-549) was 100%. It also gave a growth, % of control at 10 µM [2] of 92%, a growth, % of control at 10 µM (MCF7) of 85% and a growth, % of control at 10 µM (MDA-MB-231) of 95%. The growth, % of control at 10 µM (MDA-MB-468) was 95%, the growth, % of control at 10 µM (T47D) was 73% and the growth, % of control at 10 µM (DU-145) was 105%.
